Where “and” joins values, the source holds several entries; their conditions need not be identical. Identical values can stand only once. Entries after “also recorded” stand apart in the source; their conditions may differ. Marks after values point to notes of the source that are not given here.
Experiments:
[1] = tested on: Pseudomonas aeruginosa PAO-1; test: Biofilm coverage rate on glass slide; assay type: cell-based; conditions: 100 μM; 72 hours
[2] = tested on: uropathogenic Escherichia coli UPEC-536; test: Biofilm coverage rate on glass slide; assay type: cell-based; conditions: 0.1 μM, 1 μM, 10 μM and 100 μM; 72 hours; listed as Fe-QA
Campylobacter = test: Broiler trial: Campylobacter carriage in droppings and caeca; assay type: in vivo; conditions: chickens challenged day 20
Protocol: (§1) A study was performed to evaluate growth promotion and reduction of Campylobater carriage using FeQ and FeTyr in Ross 308 male broilers with 7 treatment groups. Each treatment group comprised four replicates of 10 birds per pen (40 birds/treatment group and 4 pens of 10 birds/treatment group), and there were 2 control groups and 5 test groups. All the test groups and one of the control groups were exposed at day 20 of the trial to dirty litter, which tested positive for Campylobacter. This method was used to provide a more natural method to Campylobater challenge the birds. Thus there was a positive control where one treatment group was challenged with Campylobacter and one negative control group where the birds were not challenged, and five treatment groups that were all challenged with Campylobacter. The total number of birds used in the 7 treatment groups was 280. Treatment group 1 was a negative control where birds just received the commercial feed, and were not challenged with dirty litter containing Campylobacter. Treatment group 2 was the positive control where the birds received the commercial feed, and were challenged with dirty litter containing Campylobater at day 20. Treatment group 3 received 0.22 g/L of FeQ in their drinking water and 0.22 g/Kg FeQ in their feed during the entire trial, and was challenged with dirty litter containing Campylobater at day 20. Treatment group 5 received 0.22 g/L of FeQ in their drinking water during the entire trial, and was challenged with dirty litter containing Campylobater at day 20. Treatment group 6 received 0.22 g/kg FeQ in their feed during the entire trial, and was challenged with dirty litter containing Campylobater at day 20. Treatment group 7 received 0.022 g/L FeQ in their drinking water during the entire trial, and was challenged with dirty litter containing Campylobater at day 20. Treatment group 8 received 0.02 g/L FeTyr in their drinking water during the entire trial, and was challenged with dirty litter containing Campylobater at day 20. The FeTyr was pre-dissolved in DMSO, and diluted to provide a solution of 0.02 g/L of FeTyr in water. (An additional treatment group 4 was terminated due to solubility issues.)
(§2) Prior to challenging the chickens with dirty litter containing Campylobacter at day 20, each pen was tested for Campylobater using cloacal swabs. All pens tested negative for Campylobater prior to the challenge. At day 20, litter, which was naturally Campylobacter-contaminated was tested to confirm the presence of Campylobacter, and then added (approximately 2 kg/pen) to the litter in all pens except in pens for treatment group 1 (the negative control). At day 28, the pen litter was sampled to confirm the presence or absence of Campylobacter. At day 41 and 42, caecal samples were taken from 3 birds per pen (12 birds per treatment group) and tested for Campylobater enumeration. At day 42, digesta, fecal samples, and caecal content was taken from all birds, and pooled per pen. Two birds per pen were also taken from treatment groups 1-3, euthanized, and blood samples taken. Samples were analyzed for blood chemistry, including analysis for alkaline phosphatase, aspartate amino transferase, alanine amino transferase, gamma-glutamyl transferase, lactate dehydrogenase, total protein, albumin, globulin, amylase and glucose.

[3] = tested on: bacterial flora present in the mouth; test: Biofilm formation on extracted human teeth (CEPLAC staining); assay type: cell-based; conditions: FeQ 340 μM; 48 hours of culturing
Protocol: Molar teeth were extracted from human patients, and mouth swabs taken from each patient to obtain samples of each patient's bacterial flora present in the mouth. The mouth swabs were cultured in the laboratory using LB media in order to grow bacterial populations ordinarily present in the mouth of each patient. The extracted teeth were washed and brushed extensively using PBS buffer and ethanol. Each patient's tooth was then placed in the bacterial culture prepared from that patient's bacterial flora sample, and cultured aerobically for 24 hours in LB media. The teeth were then stained with CEPLAC™ (Manx Healthcare Ltd, Warwick, UK), and washed three times with PBS-Tween (50 mL) to determine if biofilm had been formed on the teeth.
All teeth stained red indicating the presence of biofilm on the teeth after just 24 hours. The same teeth were then cleaned using PBS buffer and ethanol, and the procedure repeated except with 48 hours of culturing in the presence of FeQ (340 μM).

[4] = Treatment of an acne patient; assay type: in vivo, human
Protocol: A patient was treated continuously for 30 days by applying a solution of ferric quinate (340 μM) to their acne vulgarism (“acne”) once each day. Within 5 days of the start of treatment, their acne, which had not previously responded to treatment with antibiotics, began to show signs of healing.

[5] = tested on: Enteropathogenic E. coli (EPEC) E2348/69; test: Crystal violet assay of attachment to plastic well surface; assay type: cell-based; conditions: 48 hours
Protocol: Enteropathogenic E. coli (EPEC) E2348/69 were grown in wells for 48 hours at 37° C. in the presence of FeQ (100 μM), and in the absence of FeQ (as control). After 48 hours, the wells were washed in order to remove suspended cells. Crystal violet was then added to each well. The wells were then washed to remove excess dye. A mixture of acetone/ethanol was then added to the wells to re-suspend any cells attached to the plastic surface of the wells, and dissolve any dye present. The presence of dye in each well was then quantified by measuring the O.D. at 570 nm.
Enteropathogenic E. coli (EPEC) E2348/69 were grown in wells for 48 hours at 37° C. in the presence of FeDOPA (10-250 μM), and in the absence of FeDOPA (as control). After 48 hours, the wells were washed in order to remove suspended cells. Crystal violet was then added to each well. The wells were then washed to remove excess dye. A mixture of acetone/ethanol was then added to the wells to re-suspend any cells attached to the plastic surface of the wells, and dissolve any dye present. The presence of dye in each well was then quantified by measuring the O.D. at 570 nm.

[6] = tested on: Enterococcus faecalis NCTC 12697; test: Biofilm formation on plastic coated UV beads; assay type: cell-based; conditions: different concentrations of Fe-QA; T=0 and T=24 h
Protocol: (§3) Bacteria (Enterococcus faecalis NCTC 12697, Staphylococcus epidermidis F1513 and Staphylococcus aureus ATCC 25923) were grown on Brain heart infusion (BHI) passaged to new medium either containing Fe-QA or alone. Growth suspensions were prepared at 0.0001 OD/mi and then allowed to grow at 37° C. under nounal atmospheric conditions for 24 h in BHI with plastic coated UV beads (Lascells). […], 10 μl suspension was serially diluted 10 fold to 10-3, 10-4, 10-5, 10-6, 10-7, 10-8. For each dilution, 10 μl was spotted on BHI agar plates and colonies counted after 24 h. The beads were also removed washed in PBS before adding to 1 ml PBS. After vortex mixing, 10 μl of the cell suspension was serially diluted as above and cell counts carried out.

[7] = tested on: Staphylococcus epidermidis F1513; test: Biofilm formation on plastic coated UV beads; assay type: cell-based; conditions: different concentrations of Fe-QA; T=0 and T=24 h
Protocol: as §3

[8] = tested on: Staphylococcus aureus ATCC 25923; test: Biofilm formation on plastic coated UV beads; assay type: cell-based; conditions: different concentrations of Fe-QA; T=0 and T=24 h
Protocol: as §3

[9] = tested on: PAO-1 strains of Pseudomonas aeruginosa; test: Biofilm formation on contact lens (ESEM); assay type: cell-based; conditions: 340 μM in LB, 37° C., 24 hours
Protocol: To investigate biofilm formation on the contact lens, clinically determined PAO-1 strains of Pseudomonas aeruginosa were incubated with the lenses in either Luria-Bertani Media (LB) or LB with a final concentration of 340 μM FeQ at 37° C. for 24 hours in a non-shaking incubator. The lenses were then washed 6 times with PBS+0.05% Tween, before being stored overnight in PBS+0.05% Tween. In preparation for the ESEM, formaldehyde was added to a final concentration of 1% and incubated for 10 minutes in order to inactivate the bacteria. The lenses were then washed 4 times with PBS+0.05% Tween, and immediately before analysis the lenses were washed a further two times with distilled water.

[10] = Broiler trial: growth performance; assay type: in vivo, chicken (Ross 308 male broilers)
Protocol: as §1
The birds were fed with a commercial three-phase feeding program using starter, grower and finisher feeds with formulations shown in Table 2. All diets had coccidiostat (MAXIBAN® at 0.0625% in starter and […] and MONTEBAN® at 0.06% in finisher phase). Xylanase (RONOZYME® WX at 200 g per ton) and phytase (RONOZYME® P at 150 grams per ton) were added to all diets.
The feeding program is show in Table 3. The birds were reared in floor pens to day 42, and fed starter, grower and finisher feed at day 0 to 11, 11 to 24, and 24 to 42 days, respectively. All birds were weighed individually and feed weigh backs recorded per pen at day 0, 11, 21, 24 and 42 days.
as §2, with “Samples were analyzed for blood chemistry, including analysis for alkaline phosphatase, aspartate amino transferase, alanine amino transferase, gamma-glutamyl transferase, lactate dehydrogenase, total protein, albumin, globulin, amylase and glucose.” left out

[11] = tested on: mature EPEC-ΔcsrA biofilm; test: Disruption of preformed biofilm, BioFlux system; assay type: cell-based, E. coli; conditions: FeDOPA 100 μM; 20 hours
[12] = FeQ treatments 3, 5, 6, 7, FeTyr treatment 8, challenged day 20
[13] = treatment 3: 0.22 g/L FeQ in water + 0.22 g/kg FeQ in feed, challenged day 20
[14] = treatment 5: 0.22 g/L FeQ in water, challenged day 20
[15] = treatment 6: 0.22 g/kg FeQ in feed, challenged day 20
[16] = treatment 7: 0.022 g/L FeQ in water, challenged day 20

O=C([O-])C1(O)CC(O)C(O)C(O)C1.O=C([O-])C1(O)CC(O)C(O)C(O)C1.O=C([O-])C1(O)CC(O)C(O)C(O)C1.[Fe+3] (stereo not drawn) [FeQ, ferric quinate]
biofilm formation (coverage rate on glass slide) [1]: inhibits the formation of biofilm | biofilm formation (coverage rate on glass slide) [2]: inhibits founation of biofilm; also recorded: inhibits the formation of biofilm | average Campylobacter cfu/g of caeca samples at day 42 versus positive control (Campylobacter; FeQ treatments 3, 5, 6, 7, FeTyr treatment 8): lower levels of Campylobacter in their caeca; also recorded: positive effect on reducing Campylobacter infection of poultry | Campylobacter cfu/g of bird droppings at day 42 versus positive control (Campylobacter; FeQ treatments 3, 6, 7, FeTyr treatment 8): positive effect on reducing Campylobacter infection of poultry | Campylobacter colony forming units per gram of bird droppings at day 42 (Campylobacter; treatment 3: 0.22 g/L FeQ in water + 0.22 g/kg FeQ in feed): 4,860 cfu/g | Campylobacter colony forming units per gram of bird droppings at day 42 (Campylobacter; treatment 6: 0.22 g/kg FeQ in feed): 12,800 cfu/g | Campylobacter colony forming units per gram of bird droppings at day 42 (Campylobacter; treatment 7: 0.022 g/L FeQ in water): 900,000 cfu/g | biofilm on teeth (red CEPLAC staining) [3]: no teeth stained red | acne outcome after treatment for 30 days ([4]; solution 340 μM applied once each day): completely healed | recurrence of acne after discontinuation of treatment for over one year ([4]; solution 340 μM applied once each day for 30 days): did not recur | time to first signs of healing of acne ([4]; solution 340 μM applied once each day, patient): ≤ 5 days | attachment of EPEC cells to plastic well surface (crystal violet O.D. at 570 nm) ([5]; FeQ 100 μM): little or no attachment of bacterial cells to the surface and no biofilm formation | biofilm formation on plastic coated UV beads [6]: inhibited E. faecalis biofilm formation | biofilm formation on plastic coated UV beads [7]: inhibited S. epidermidis biofilm formation | biofilm formation on plastic coated UV beads [8]: inhibited S. aureus biofilm formation | biofilm formation on contact lens (ESEM images) [9]: inhibits biofilm formation | MFCR (mortality adjusted feed conversion ratio) 0-20 ([10]; FeQ groups 3, 5, 6, 7 pooled, absence of Campylobacter challenge): 1.2996 | MFCR at day 42 versus positive control [10, 12]: positive effect on MFCR | average body weight at day 42 versus positive control [10, 12]: positive effect on growth | ABW (average body weight) Day 0 [10, 13]: 0.040 kg | MFCR (mortality adjusted feed conversion ratio) Day 0-11 [10, 13]: 1.181^ab | MFCR (mortality adjusted feed conversion ratio) Day 0-42 [10, 13]: 1.595 | ABW (average body weight) Day 0 [10, 14]: 0.040 kg | MFCR (mortality adjusted feed conversion ratio) Day 0-11 [10, 14]: 1.210^ab | MFCR (mortality adjusted feed conversion ratio) Day 0-42 [10, 14]: 1.560 | ABW (average body weight) Day 0 [10, 15]: 0.041 kg | AFD (average feed intake) Day 0-11 [10, 15]: 0.360 kg | AWG (average weight gain) Day 0-11 [10, 15]: 0.310 kg | AWG (average weight gain) Day 11-20 [10, 15]: 0.640 kg | MFCR (mortality adjusted feed conversion ratio) Day 0-11 [10, 15]: 1.168^a | MFCR (mortality adjusted feed conversion ratio) Day 0-42 [10, 15]: 1.563 and 1,563 | ABW (average body weight) Day 0 [10, 16]: 0.040 kg | MFCR (mortality adjusted feed conversion ratio) Day 0-11 [10, 16]: 1.236^b | MFCR (mortality adjusted feed conversion ratio) Day 0-42 [10, 16]: 1.612

Fe(DOPA)3 [FeDOPA]
attachment of EPEC cells to plastic well surface (crystal violet O.D. at 570 nm) ([5]; FeDOPA 68-250 μM): attachment of bacterial cells to the surface and biofilm formation is inhibited | dispersion of mature biofilm [11]: dispersed the biofilm
